Reference: ChEMBL document CHEMBL3046811, “Syntheses and in vitro biological screening of 1-aryl-10H-[1,2,4]triazolo[3,4:3,4][1,2,4]triazino[5,6-b]indoles” (Med Chem Res, 2013)

Tests used:
[1] = test system: Respiratory syncytial virus; test: Antiviral activity against Respiratory syncytial virus infected African green monkey Vero 76 cells assessed as reduction in plaque number treated after viral infection measured after 5 days by plaque reduction assay; format: functional, organism-based; conditions: human respiratory syncytial virus, 120 h
Poliovirus 1 = test: Antiviral activity against Human poliovirus 1 strain Sabin infected African green monkey Vero 76 cells assessed as reduction in plaque number treated after viral infection measured after 2 days by plaque reduction assay; format: functional, organism-based; conditions: Enterovirus C, 48 h
[2] = test system: Vesicular stomatitis virus; test: Antiviral activity against Vesicular stomatitis virus infected African green monkey Vero 76 cells assessed as reduction in plaque number treated after viral infection measured after 2 days by plaque reduction assay; format: functional, organism-based; conditions: 48 h
Coxsackievirus B2 = test: Antiviral activity against Human coxsackievirus B2 infected in African green monkey Vero 76 cells assessed as reduction in plaque number treated after viral infection measured after 3 days by plaque reduction assay; format: functional, organism-based; conditions: Enterovirus B, 72 h
Vaccinia virus = test: Antiviral activity against Vaccinia virus infected African green monkey Vero 76 cells assessed as reduction in plaque number treated after viral infection measured after 3 days by plaque reduction assay; format: functional, organism-based; conditions: Orthopoxvirus vaccinia, 72 h
[3] = test system: Bovine viral diarrhea virus 1; test: Antiviral activity against Bovine viral diarrhea virus 1 infected bovine MDBK cells assessed as protection against virus-induced cytopathogenicity treated 1 hr after viral infection measured after 3-4 days by MTT method; format: functional, organism-based; conditions: Bovine viral diarrhea virus isolates and strains
[4] = test system: Human immunodeficiency virus 1; test: Antiviral activity against Human immunodeficiency virus 1 infected human MT4 cells assessed as protection against virus-induced cytopathogenicity treated before viral infection measured after 4 days by MTT assay; format: functional, organism-based; conditions: Human immunodeficiency virus 1, MT4, 96 h
[5] = Cytotoxicity against Chlorocebus aethiops (African green monkey) Vero 76 cells assessed as inhibition of cell viability after 48 to 120 hr by MTT assay; format: cell-based; conditions: chlorocebus sabaeus
[6] = Cytotoxicity against Mesocricetus auratus (Syrian golden hamster) BHK21cells assessed as inhibition of cell viability after 48 to 120 hr by MTT assay; format: cell-based; conditions: BHK-21 cells
[7] = Cytotoxicity against Bos taurus (bovine) MDBK cells assessed as inhibition of cell viability after 48 to 120 hr by MTT assay; format: cell-based; conditions: cattle
[8] = Cytotoxicity against Homo sapiens (human) MT4 cells assessed as inhibition of cell vaibility after 96 hr by MTT assay; format: cell-based
Human alphaherpesvirus 1 = test: Antiviral activity against Human herpesvirus 1 infected African green monkey Vero 76 cells assessed as reduction in plaque number treated after viral infection measured after 3 days by plaque reduction assay; format: functional, organism-based; conditions: Human alphaherpesvirus 1, Vero, 72 h
[9] = test system: Mammalian orthoreovirus 1; test: Antiviral activity against Mammalian orthoreovirus 1 infected Syrian hamster BHK-21 cells assessed as protection against virus-induced cytopathogenicity treated 1 hr after viral infection measured after 3-4 days by MTT method; format: functional, organism-based; conditions: Mammalian orthoreovirus 1, BHK-21
Yellow fever virus = test: Antiviral activity against Yellow fever virus infected Syrian hamster BHK-21 cells assessed as protection against virus-induced cytopathogenicity treated 1 hr after viral infection measured after 3-4 days by MTT method; format: functional, organism-based

Oc1ccc(-c2nnc3nnc4c5ccccc5[nH]c4n23)cc1
> 100 µM: EC50 [1] | EC50 (Poliovirus 1) | EC50 [2] | EC50 (Coxsackievirus B2) | EC50 (Vaccinia virus) | EC50 [3] | EC50 [4] | CC50 [5] | CC50 [6] | CC50 [7] | CC50 at 96 h [8] | EC50 (Human alphaherpesvirus 1) | EC50 [9] | EC50 (Yellow fever virus)

COc1ccc(-c2nnc3nnc4c5ccccc5[nH]c4n23)cc1OC
55 µM: EC50 [9]
> 100 µM: EC50 [1] | EC50 (Poliovirus 1) | EC50 [2] | EC50 (Coxsackievirus B2) | EC50 (Vaccinia virus) | EC50 [3] | EC50 [4] | CC50 [5] | CC50 [6] | CC50 [7] | CC50 at 96 h [8] | EC50 (Human alphaherpesvirus 1) | EC50 (Yellow fever virus)

COc1ccc(-c2nnc3nnc4c5ccccc5[nH]c4n23)cc1
> 100 µM: EC50 [1] | EC50 (Poliovirus 1) | EC50 [2] | EC50 (Coxsackievirus B2) | EC50 (Vaccinia virus) | EC50 [3] | EC50 [4] | CC50 [5] | CC50 [6] | CC50 [7] | CC50 at 96 h [8] | EC50 (Human alphaherpesvirus 1) | EC50 [9] | EC50 (Yellow fever virus)

CSc1ccc(-c2nnc3nnc4c5ccccc5[nH]c4n23)cc1
45 µM: EC50 [9]
90 µM: CC50 [5]
> 100 µM: EC50 [3] | EC50 [4] | CC50 [6] | CC50 [7] | CC50 at 96 h [8] | EC50 (Yellow fever virus)
> 90 µM: EC50 [1] | EC50 (Poliovirus 1) | EC50 [2] | EC50 (Coxsackievirus B2) | EC50 (Vaccinia virus) | EC50 (Human alphaherpesvirus 1)

Brc1cccc(-c2nnc3nnc4c5ccccc5[nH]c4n23)c1
> 100 µM: EC50 [1] | EC50 (Poliovirus 1) | EC50 [2] | EC50 (Coxsackievirus B2) | EC50 (Vaccinia virus) | EC50 [3] | EC50 [4] | CC50 [5] | CC50 [6] | CC50 [7] | CC50 at 96 h [8] | EC50 (Human alphaherpesvirus 1) | EC50 [9] | EC50 (Yellow fever virus)

Fc1ccc(-c2nnc3nnc4c5ccccc5[nH]c4n23)cc1
> 100 µM: EC50 [1] | EC50 (Poliovirus 1) | EC50 [2] | EC50 (Coxsackievirus B2) | EC50 (Vaccinia virus) | EC50 [3] | EC50 [4] | CC50 [5] | CC50 [6] | CC50 [7] | CC50 at 96 h [8] | EC50 (Human alphaherpesvirus 1) | EC50 [9] | EC50 (Yellow fever virus)

Clc1ccccc1-c1nnc2nnc3c4ccccc4[nH]c3n12
> 100 µM: EC50 [1] | EC50 (Poliovirus 1) | EC50 [2] | EC50 (Coxsackievirus B2) | EC50 (Vaccinia virus) | EC50 [3] | EC50 [4] | CC50 [5] | CC50 [6] | CC50 [7] | CC50 at 96 h [8] | EC50 (Human alphaherpesvirus 1) | EC50 [9] | EC50 (Yellow fever virus)

Clc1ccc(-c2nnc3nnc4c5ccccc5[nH]c4n23)cc1
> 100 µM: EC50 [1] | EC50 (Poliovirus 1) | EC50 [2] | EC50 (Coxsackievirus B2) | EC50 (Vaccinia virus) | EC50 [3] | EC50 [4] | CC50 [5] | CC50 [6] | CC50 [7] | CC50 at 96 h [8] | EC50 (Human alphaherpesvirus 1) | EC50 [9] | EC50 (Yellow fever virus)

O=[N+]([O-])c1cccc(-c2nnc3nnc4c5ccccc5[nH]c4n23)c1
> 100 µM: EC50 [1] | EC50 (Poliovirus 1) | EC50 [2] | EC50 (Coxsackievirus B2) | EC50 (Vaccinia virus) | EC50 [3] | EC50 [4] | CC50 [5] | CC50 [6] | CC50 [7] | CC50 at 96 h [8] | EC50 (Human alphaherpesvirus 1) | EC50 [9] | EC50 (Yellow fever virus)

O=[N+]([O-])c1ccc(-c2nnc3nnc4c5ccccc5[nH]c4n23)cc1
> 100 µM: EC50 [1] | EC50 (Poliovirus 1) | EC50 [2] | EC50 (Coxsackievirus B2) | EC50 (Vaccinia virus) | EC50 [3] | EC50 [4] | CC50 [5] | CC50 [6] | CC50 [7] | CC50 at 96 h [8] | EC50 (Human alphaherpesvirus 1) | EC50 [9] | EC50 (Yellow fever virus)

c1ccc(-c2nnc3nnc4c5ccccc5[nH]c4n23)cc1
> 100 µM: EC50 [1] | EC50 (Poliovirus 1) | EC50 [2] | EC50 (Coxsackievirus B2) | EC50 (Vaccinia virus) | EC50 [3] | EC50 [4] | CC50 [5] | CC50 [6] | CC50 [7] | CC50 at 96 h [8] | EC50 (Human alphaherpesvirus 1) | EC50 [9] | EC50 (Yellow fever virus)

O=[N+]([O-])c1ccccc1-c1nnc2nnc3c4ccccc4[nH]c3n12
> 100 µM: EC50 [1] | EC50 (Poliovirus 1) | EC50 [2] | EC50 (Vaccinia virus) | EC50 [3] | EC50 [4] | CC50 [5] | CC50 [6] | CC50 [7] | CC50 at 96 h [8] | EC50 (Human alphaherpesvirus 1) | EC50 [9] | EC50 (Yellow fever virus)
100 µM: EC50 (Coxsackievirus B2)

c1ccc(Oc2cccc(-c3nnc4nnc5c6ccccc6[nH]c5n34)c2)cc1
80 µM: CC50 [5]
> 80 µM: EC50 [1] | EC50 (Poliovirus 1) | EC50 [2] | EC50 (Coxsackievirus B2) | EC50 (Vaccinia virus) | EC50 (Human alphaherpesvirus 1)
> 100 µM: EC50 [3] | EC50 [4] | CC50 [7] | CC50 at 96 h [8] | EC50 [9] | EC50 (Yellow fever virus)
100 µM: CC50 [6]

COc1ccc(OC)c(-c2nnc3nnc4c5ccccc5[nH]c4n23)c1
> 4 µM: EC50 [4]
30 µM: CC50 [6]
15 µM: CC50 [5]
> 30 µM: EC50 [9] | EC50 (Yellow fever virus)
> 15 µM: EC50 [1] | EC50 (Poliovirus 1) | EC50 [2] | EC50 (Coxsackievirus B2) | EC50 (Vaccinia virus) | EC50 (Human alphaherpesvirus 1)
4 µM: CC50 at 96 h [8]
12 µM: CC50 [7]
> 12 µM: EC50 [3]

COc1cccc(-c2nnc3nnc4c5ccccc5[nH]c4n23)c1
47 µM: CC50 at 96 h [8]
65 µM: CC50 [5]
> 47 µM: EC50 [4]
> 65 µM: EC50 [1] | EC50 (Poliovirus 1) | EC50 [2] | EC50 (Coxsackievirus B2) | EC50 (Vaccinia virus) | EC50 (Human alphaherpesvirus 1)
64 µM: CC50 [7]
> 64 µM: EC50 [3]
> 100 µM: CC50 [6] | EC50 [9] | EC50 (Yellow fever virus)

COc1ccccc1-c1nnc2nnc3c4ccccc4[nH]c3n12
20 µM: CC50 [5]
> 20 µM: EC50 [1] | EC50 (Poliovirus 1) | EC50 [2] | EC50 (Coxsackievirus B2) | EC50 (Vaccinia virus) | EC50 (Human alphaherpesvirus 1)
23 µM: CC50 [6]
> 23 µM: EC50 [9] | EC50 (Yellow fever virus)
5 µM: CC50 at 96 h [8]
17 µM: CC50 [7]
> 5 µM: EC50 [4]
> 17 µM: EC50 [3]

Oc1ccccc1-c1nnc2nnc3c4ccccc4[nH]c3n12
> 70 µM: EC50 [1] | EC50 (Poliovirus 1) | EC50 [2] | EC50 (Coxsackievirus B2) | EC50 (Vaccinia virus) | EC50 (Human alphaherpesvirus 1)
> 100 µM: EC50 [3] | EC50 [4] | CC50 [6] | CC50 [7] | CC50 at 96 h [8] | EC50 [9] | EC50 (Yellow fever virus)
70 µM: CC50 [5]

Oc1cccc(-c2nnc3nnc4c5ccccc5[nH]c4n23)c1
> 100 µM: EC50 [1] | EC50 (Poliovirus 1) | EC50 [2] | EC50 (Coxsackievirus B2) | EC50 (Vaccinia virus) | EC50 [3] | EC50 [4] | CC50 [5] | CC50 [6] | CC50 [7] | CC50 at 96 h [8] | EC50 (Human alphaherpesvirus 1) | EC50 [9] | EC50 (Yellow fever virus)

Cc1ccc(-c2nnc3nnc4c5ccccc5[nH]c4n23)cc1
≥ 100 µM: CC50 [5]
> 100 µM: EC50 [1] | EC50 (Poliovirus 1) | EC50 [2] | EC50 (Coxsackievirus B2) | EC50 (Vaccinia virus) | EC50 [3] | EC50 [4] | CC50 [6] | CC50 [7] | CC50 at 96 h [8] | EC50 (Human alphaherpesvirus 1) | EC50 [9] | EC50 (Yellow fever virus)

C[C@@]1(O)[C@H](O)[C@@H](CO)O[C@H]1n1cnc2c(=O)[nH]c(N)nc21 [2'-B-METHYL-GUANOSINE]
2.5 µM: EC50 (Yellow fever virus)
1.8 µM: EC50 [3]

C#C[C@@]1(O)[C@H](O)[C@@H](CO)O[C@H]1n1ccc(N)nc1=O [2'-ETHYNYL-D-CYTIDINE]
23 µM: EC50 (Coxsackievirus B2)
18 µM: EC50 (Poliovirus 1)

COc1c(C)c2c(c(O)c1C/C=C(\C)CCC(=O)O)C(=O)OC2 [MYCOPHENOLIC ACID]
1.8 µM: EC50 (Vaccinia virus)

Cc1cn([C@H]2C[C@H](N=[N+]=[N-])[C@@H](CO)O2)c(=O)[nH]c1=O [ZIDOVUDINE]
0.01 µM: EC50 [4]
